Values quoted from earlier work, collected in patent US20020172713A1, “Micron sized bicarbonate particles and slurrys containing the same” (Church & Dwight, Co., Inc., priority 2001, published 2002).
Like-named read-outs stand apart in the source and are kept apart here.

Settings: prior art particles, dilution of about 70% by weight slurry with additional water

- alkali metal bicarbonate particles dissolved in dilution (10° C.): 7%
- alkali metal bicarbonate particles dissolved in dilution (22° C.): 8.5%
SMILES: O=C([O-])O.[Na+] [sodium bicarbonate]
